{"source": "patent US11358947B2", "about": "“Substituted 2-acylamino-cycloalkylthiophene-3-carboxylic acid arylamides as inhibitors of calcium-activated chloride channel TMEM16A” (THE REGENTS OF THE UNIVERSITY OF CALIFORNIA, priority 2017, dated 2022)", "key": {"TMEM16A [1]": {"molecular_target": "T1, TMEM16A (Homo sapiens, UniProt Q5XXA6)", "T1 sequence (Q5XXA6 1-986)": "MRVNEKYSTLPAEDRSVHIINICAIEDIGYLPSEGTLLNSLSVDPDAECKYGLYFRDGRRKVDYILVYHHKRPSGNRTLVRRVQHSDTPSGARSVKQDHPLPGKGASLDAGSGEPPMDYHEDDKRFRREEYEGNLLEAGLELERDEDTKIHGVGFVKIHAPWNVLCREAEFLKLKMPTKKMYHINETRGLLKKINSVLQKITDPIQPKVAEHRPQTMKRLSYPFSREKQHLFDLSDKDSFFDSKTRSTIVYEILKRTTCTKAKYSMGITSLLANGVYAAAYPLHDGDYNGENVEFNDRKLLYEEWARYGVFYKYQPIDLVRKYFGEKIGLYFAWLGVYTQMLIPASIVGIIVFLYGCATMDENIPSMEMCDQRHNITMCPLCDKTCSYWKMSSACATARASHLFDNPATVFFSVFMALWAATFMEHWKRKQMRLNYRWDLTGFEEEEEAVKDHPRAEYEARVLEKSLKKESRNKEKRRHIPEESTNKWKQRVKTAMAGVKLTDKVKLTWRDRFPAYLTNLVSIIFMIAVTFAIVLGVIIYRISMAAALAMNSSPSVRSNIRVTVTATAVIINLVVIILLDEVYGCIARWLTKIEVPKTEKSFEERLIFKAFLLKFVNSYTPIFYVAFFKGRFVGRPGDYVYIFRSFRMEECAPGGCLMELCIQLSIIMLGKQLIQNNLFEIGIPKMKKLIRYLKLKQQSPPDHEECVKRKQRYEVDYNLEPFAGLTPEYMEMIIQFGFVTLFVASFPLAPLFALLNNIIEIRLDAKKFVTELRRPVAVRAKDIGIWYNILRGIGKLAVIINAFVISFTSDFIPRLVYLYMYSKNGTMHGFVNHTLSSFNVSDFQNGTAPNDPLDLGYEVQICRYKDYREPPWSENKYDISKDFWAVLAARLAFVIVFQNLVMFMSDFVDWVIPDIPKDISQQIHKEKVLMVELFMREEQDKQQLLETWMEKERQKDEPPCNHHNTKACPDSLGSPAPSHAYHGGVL", "assay": "TMEM16A functional fluorescence plate reader (FPR) assay, iodide influx in FRT cells with YFP", "type": "cell-based", "details": "TMEM16A-expressing FRT cells, compound 10 min before iodide/ATP", "experimental": "A high-throughput screening assay was previously developed to identify small molecule inhibitors of TMEM16A. […] The assay involved addition of test compounds to the cells for 10 min in a physiological chloride-containing solution, followed by addition of an iodide solution containing ATP. TMEM16A-facilitated iodide influx was determined from the initial time course of decreasing YFP fluorescence.\n2-Acylamino-cycloalkylthiophene-3-carboxylic acid arylamides 6aa-6bw were initially evaluated for inhibition of TMEM16A anion channel function using a cell-based functional plate reader assay as reported.\nYields (%) are of the isolated or purified products. IC50 (μM) for inhibition of TMEM16A anion conductance using a fluorescence plate reader (FPR) assay.\nCell lines and culture. Fischer Rat Thyroid (FRT) cells stably co-expressing TMEM16A, TMEM16B and human wild-type CFTR and the halide-sensitive yellow fluorescent protein (YFP)-H148Q were cultured as described. […] For plate reader assays, cells were plated in black 96-well microplates (Corning-Costar Corp., New York, N.Y.) at a density of 20,000 cells per well and assayed 24-48 hours after plating.\nTMEM16A functional assay. TMEM16A functional plate-reader assay was done as previously described. […] Test compounds (0.5 μl in DMSO) were added to each well at specified concentration. […] The initial rate of I− influx following each of the solution additions was computed from fluorescence data by nonlinear regression. TMEM16B activity was assayed similarly as described using FRT cells co-expressing YFP and TMEM16B."}, "TMEM16A [2]": {"molecular_target": "T1, TMEM16A", "assay": "Short-circuit current assay in TMEM16A-expressing FRT cells", "type": "cell-based", "from_the_text": "Measurements were done in FRT cells expressing TMEM16A.\n(§1) Concentration-dependent inhibition of TMEM16A measured by short-circuit current assay; TMEM16B and non-TMEM16 anion conductance measured using a fluorescence plate reader assay using FRT and HT-29 cells respectively; cell viability measured in FRT null cells.\nShort-circuit current measurement. Short-circuit current measurements were done as described. (See Piechowicz, K. A. et al., J Enzyme Inhib Med Chem 2016, 1-7.) Briefly, Snapwell inserts (Corning Costar, Corning, N.Y.) containing TMEM16A-expressing FRT cells were mounted in Ussing chambers (Physiological instruments, San Diego, Calif.). The hemichambers were filled with 5 ml of HCO3^− buffered solution (basolateral) and half-Cl^− solution (apical), and the basolateral membrane was permeabilized with 250 μg/ml amphotericin B. Solutions were bubbled with 95% O2/5% CO2 and maintained at 37° C., and short-circuit current was measured on a DVC-1000 voltage clamp (World Precision Instruments Inc., Sarasota, Fla.) using Ag/AgCl electrodes and 3 M KCl agar bridges."}, "FRT null cells": {"tested_on": "FRT null cells", "assay": "Cytotoxicity by Alamar Blue assay in FRT cells", "type": "cell-based, rat", "details": "8 h", "experimental": "as §1\nWe further assayed the compound potency on endogenous non-TMEM16A. Ca^2+-activated Cl^− channel in HT-29 cells.\nCytotoxicity. FRT cells were cultured overnight in black 96-well Costar microplates and incubated with 5 μM test compounds for 8 h. Cytotoxicity was measured by Alamar Blue assay (Invitrogen, Carlsbad, Calif.) as per the manufacturer's instructions."}, "SW-480 cells": {"tested_on": "SW-480 cells", "assay": "SW-480 cell proliferation, AlamarBlue after 72 h", "type": "cell-based", "details": "Homo sapiens, SW480; AlamarBlue after 72 h of drug treatment; read-out: IC50 inhibition of SW-480 cell proliferation", "experimental": "Compounds according to the present disclosure (structures shown in FIG. 5B) were tested for their inhibitory effect on proliferation of SW-480 cell line.\nSW-480 cells were cultured on plastic in Leibovitz L15 medium supplemented with 10% fetal bovine serum, 2 mM L-glutamine, 100 units/mL penicillin, and 100 μg/mL streptomycin. The cells were incubated at 37° C. without CO2.\nSW-480 cells were plated into black 96-well microplates (Corning-Costar Corp., New York, N.Y.) at 10% seeding. The cells were treated with test compounds dissolved in DMSO in serial dilution while maintaining the final concentration of DMSO at 0.5%. Plated cells were then incubated for 72 h at 37° C. Cell proliferation was quantified using the AlamarBlue assay (Invitrogen, Carlsbad, Calif.) as per the manufacturer's instructions. Data was normalized against untreated control cells that were lysed for 10 minutes using Triton-X100 (0.1% in PBS)."}}, "note": "Several values for one entry are separate records, joined by “and”; a condition that tells them apart may be missing. Identical values can stand only once.", "data": [{"smiles": "Cc1ccccc1NC(=O)c1c(NC(=O)C(F)(F)F)sc2c1CCCCC2", "note": "[Compound 6aa, 2-(2,2,2-Trifluoro-acetylamino)-5,6,7,8-tetrahydro-4H-cyclohepta[b]thiophene-3-carboxylic acid o-tolylamide]", "values": [{"measurement": "IC50", "setting": "TMEM16A [1]", "result": 420, "unit": "nM"}, {"measurement": "IC50", "setting": "TMEM16A [2]", "result": 260, "unit": "nM"}, {"measurement": "Cellular survival % at 5 μM", "setting": "FRT null cells", "result": 99, "unit": "%"}, {"measurement": "IC50", "setting": "SW-480 cells", "result": 950, "unit": "nM"}]}, {"smiles": "Cc1ccccc1NC(=O)c1c(NC(=O)C(F)(F)Br)sc2c1CCCCC2", "note": "[Compound 6bm, 2-(2-Bromo-2,2-difluoro-acetylamino)-5,6,7,8-tetrahydro-4H-cyclohepta[b]thiophene-3-carboxylic acid o-tolylamide]", "values": [{"measurement": "IC50", "setting": "TMEM16A [1]", "result": "80 to 180 nM and 83 nM"}, {"measurement": "IC50", "setting": "TMEM16A [2]", "result": 30, "unit": "nM"}, {"measurement": "Cellular survival % at 5 μM", "setting": "FRT null cells", "result": 97, "unit": "%"}, {"measurement": "IC50", "setting": "SW-480 cells", "result": 7000, "unit": "nM"}]}]}
